In patent US20240124545A1, “COMPOSITIONS AND METHODS RELATING TO THE TREATMENT OF DISEASES” (ILC THERAPEUTICS LIMITED, priority 2021, published 2024):
Where “and” joins values, the source holds several entries; their conditions need not be identical. Equal values may be shown once. Read-outs that look alike come from different tables or passages of the source.

Experiments:
[1] = in vitro; conditions: human, uninfected HeLa-CD4-βgal cells
[2] = XTT viability (cytotoxicity) assay, uninfected HeLa-CD4-βgal cells (Experiment 4); conditions: human, uninfected HeLa-CD4-βgal cells
[3] = in vitro; conditions: human, uninfected HeLa-CD4-βgal cells; remark: listed apart in the source
[4] = tested on: HIV-1 LAI; conditions: for HIV Infectivity in HeLa CD4 βgal cells (β-gal units) - antiviral control / HIV Infectivity in HeLa CD4 βgal cells, percentage of vehicle - antiviral control: single data point
[5] = tested on: HeLa-CD4-βgal cells
[6] = tested on: HIV-1 LAI; test: HIV-1 LAI infectivity assay with β-galactosidase readout (Experiment 5); format: cell-based, human immunodeficiency virus type 1 (HIV-1) LAI strain; conditions: for HIV infection blocked by control antiviral: 0.5 μM

## enfuvirtide
[1]
  viability at 48 h, 5e-05 µM: 87.9%
  viability at 48 h, 0.0003 µM: 87.4%
  viability at 48 h, 0.001 µM: 81.4%
  viability at 48 h, 0.006 µM: 83.7%
  viability at 48 h, 0.03 µM: 79.6%
  viability at 48 h, 0.2 µM: 82.5%
  viability at 48 h, 0.8 µM: 83.8%
  viability at 48 h, 4 µM: 74.4%
  viability at 48 h, 20 µM: 57.1%
[2]
  CC50 at 48 h: > 20 µM
[3]
  viability at 48 h, 0.5 µM: 93.1 ± 2.3%
[4]
  HIV Infectivity in HeLa CD4 βgal cells (β-galactosidase units): 3,399 RLU and 4,452 RLU
  HIV Infectivity in HeLa-CD4-βgal cells (% vehicle): 0.1 % vehicle
[4]; 0.00005 μM
  HIV Infectivity in HeLa CD4 βgal cells (β-gal units) - antiviral control: 1,159,781 RLU
  HIV Infectivity in HeLa CD4 βgal cells, percentage of vehicle - antiviral control: 102.2 % vehicle
[4]; 0.0003 μM
  HIV Infectivity in HeLa CD4 βgal cells (β-gal units) - antiviral control: 1,083,305 RLU
  HIV Infectivity in HeLa CD4 βgal cells, percentage of vehicle - antiviral control: 95.4 % vehicle
[4]; 0.001 μM
  HIV Infectivity in HeLa CD4 βgal cells (β-gal units) - antiviral control: 1,061,348 RLU
  HIV Infectivity in HeLa CD4 βgal cells, percentage of vehicle - antiviral control: 93.5 % vehicle
[4]; 0.006 μM
  HIV Infectivity in HeLa CD4 βgal cells (β-gal units) - antiviral control: 518,832 RLU
  HIV Infectivity in HeLa CD4 βgal cells, percentage of vehicle - antiviral control: 45.5 % vehicle
[4]; 0.03 μM
  HIV Infectivity in HeLa CD4 βgal cells (β-gal units) - antiviral control: 73,650 RLU
  HIV Infectivity in HeLa CD4 βgal cells, percentage of vehicle - antiviral control: 6.2 % vehicle
[4]; 0.2 μM
  HIV Infectivity in HeLa CD4 βgal cells (β-gal units) - antiviral control: 19,736 RLU
  HIV Infectivity in HeLa CD4 βgal cells, percentage of vehicle - antiviral control: 1.5 % vehicle
[4]; 0.5 μM
  HIV infection blocked by control antivirals: ~100%
[4]; 0.8 μM
  HIV Infectivity in HeLa CD4 βgal cells (β-gal units) - antiviral control: 2,604 RLU
  HIV Infectivity in HeLa CD4 βgal cells, percentage of vehicle - antiviral control: 0.0 % vehicle
[4]; 4.0 μM
  HIV Infectivity in HeLa CD4 βgal cells (β-gal units) - antiviral control: 1,950 RLU
  HIV Infectivity in HeLa CD4 βgal cells, percentage of vehicle - antiviral control: −0.1 % vehicle
[4]; 20 μM
  HIV Infectivity in HeLa CD4 βgal cells (β-gal units) - antiviral control: 1,538 RLU
  HIV Infectivity in HeLa CD4 βgal cells, percentage of vehicle - antiviral control: −0.1 % vehicle
[5]
  loss of cell viability with control inhibitor: minimal loss of cell viability
[6]
  block of HIV infection by control inhibitor: completely blocked HIV infection
  HIV infection blocked by control antiviral: ~100%
[6]; listed as T20
  HIV infection blocked by control antiviral: over 99%
[6]; control antiviral 0.5 μM, duplicate data points
  HIV-1 Infectivity in HeLa-CD4-βgal cells (% vehicle): 0.0 % vehicle
[6]; control antiviral 0.5 μM, individual values
  HIV Infectivity in HeLa CD4 βgal cells (β-galactosidase units): 3,953 RLU and 3,657 RLU
